Where a name gives a salt, the structure may show the parent alone. Read-outs that look alike come from different tables or passages of the source.
Key:
[1] = molecular target: EGFR L858R/T790M (Homo sapiens (Human), UniProt P00533, L858R/T790M); test: HTRF-based EGFR biochemical assay (L858R/T790M); details: 100 μM ATP, enzyme 0.02 nM
Outline: (§1)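 Mutant EGFR (L858R 0.1 nM, L858R/T790M 0.02 nM) preincubated 30 min with compounds at room temperature in HEPES pH 7.0 buffer with Mg2+/Mn2+, then reacted 20 min with 1 μM biotinylated tyrosine kinase peptide and 100 μM ATP. Phosphorylation read by HTRF (Eu-cryptate anti-phosphotyrosine/streptavidin-XL665, 665/620 nm) after EDTA quench.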

[2] = molecular target: EGFR L858R (Homo sapiens (Human), UniProt P00533, L858R); test: HTRF-based EGFR biochemical assay (L858R); details: 100 μM ATP, enzyme 0.1 nM
Outline: as §1

[3] = system: EGFR mutant L858R/T790M Ba/F3 cells; test: Ba/F3 cell proliferation model (Cell Titer Glo), EGFR L858R/T790M; format: cell-based, murine; details: 72 hours
Outline: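 Retrovirally transduced Ba/F3 cells exposed 72 h to compound alone or with 1 μg/mL cetuximab, triplicate points, repeated at least three times. Viability by Cell Titer Glo luminescence (ATP); curves fitted by non-linear sigmoidal dose-response regression.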

[4] = Mus musculus, BaF3, single agent, read-out: Cell IC50 BaF3 EGFR L858R/T790M
[5] = in combination with 1 μg/mL cetuximab, read-out: Cell IC50 BaF3 EGFR L858R/T790M (+cetux.)

Sequence of EGFR L858R (P00533 25-1210 L858R): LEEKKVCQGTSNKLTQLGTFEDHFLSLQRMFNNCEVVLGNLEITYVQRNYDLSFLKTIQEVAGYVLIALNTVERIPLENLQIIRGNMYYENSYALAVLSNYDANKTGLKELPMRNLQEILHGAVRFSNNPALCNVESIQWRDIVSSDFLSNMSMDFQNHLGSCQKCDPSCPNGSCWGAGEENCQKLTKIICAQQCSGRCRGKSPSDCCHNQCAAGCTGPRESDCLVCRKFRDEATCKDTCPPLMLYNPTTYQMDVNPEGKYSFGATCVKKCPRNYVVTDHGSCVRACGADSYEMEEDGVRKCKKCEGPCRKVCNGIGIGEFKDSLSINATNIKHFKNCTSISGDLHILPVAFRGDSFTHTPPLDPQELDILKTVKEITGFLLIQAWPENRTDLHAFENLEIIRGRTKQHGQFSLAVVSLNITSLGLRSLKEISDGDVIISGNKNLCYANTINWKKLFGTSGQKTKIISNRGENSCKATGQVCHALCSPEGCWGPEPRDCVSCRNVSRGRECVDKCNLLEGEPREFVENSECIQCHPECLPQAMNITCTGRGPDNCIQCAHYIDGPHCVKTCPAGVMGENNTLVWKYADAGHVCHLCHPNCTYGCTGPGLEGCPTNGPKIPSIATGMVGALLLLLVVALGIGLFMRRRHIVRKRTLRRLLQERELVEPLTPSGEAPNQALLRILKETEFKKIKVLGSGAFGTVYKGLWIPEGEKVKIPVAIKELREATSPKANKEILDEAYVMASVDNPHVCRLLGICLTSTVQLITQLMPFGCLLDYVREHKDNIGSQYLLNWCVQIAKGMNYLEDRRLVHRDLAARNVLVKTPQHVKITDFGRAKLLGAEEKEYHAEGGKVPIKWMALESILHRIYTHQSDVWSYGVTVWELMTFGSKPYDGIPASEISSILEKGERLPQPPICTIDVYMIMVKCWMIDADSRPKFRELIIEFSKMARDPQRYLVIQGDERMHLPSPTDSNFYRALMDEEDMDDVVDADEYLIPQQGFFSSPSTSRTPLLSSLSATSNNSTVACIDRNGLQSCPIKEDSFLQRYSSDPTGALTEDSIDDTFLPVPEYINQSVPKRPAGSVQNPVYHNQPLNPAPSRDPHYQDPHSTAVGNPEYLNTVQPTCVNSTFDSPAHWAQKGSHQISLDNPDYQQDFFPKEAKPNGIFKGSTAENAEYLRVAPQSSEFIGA
Sequence of EGFR L858R/T790M (P00533 25-1210 T790M/L858R): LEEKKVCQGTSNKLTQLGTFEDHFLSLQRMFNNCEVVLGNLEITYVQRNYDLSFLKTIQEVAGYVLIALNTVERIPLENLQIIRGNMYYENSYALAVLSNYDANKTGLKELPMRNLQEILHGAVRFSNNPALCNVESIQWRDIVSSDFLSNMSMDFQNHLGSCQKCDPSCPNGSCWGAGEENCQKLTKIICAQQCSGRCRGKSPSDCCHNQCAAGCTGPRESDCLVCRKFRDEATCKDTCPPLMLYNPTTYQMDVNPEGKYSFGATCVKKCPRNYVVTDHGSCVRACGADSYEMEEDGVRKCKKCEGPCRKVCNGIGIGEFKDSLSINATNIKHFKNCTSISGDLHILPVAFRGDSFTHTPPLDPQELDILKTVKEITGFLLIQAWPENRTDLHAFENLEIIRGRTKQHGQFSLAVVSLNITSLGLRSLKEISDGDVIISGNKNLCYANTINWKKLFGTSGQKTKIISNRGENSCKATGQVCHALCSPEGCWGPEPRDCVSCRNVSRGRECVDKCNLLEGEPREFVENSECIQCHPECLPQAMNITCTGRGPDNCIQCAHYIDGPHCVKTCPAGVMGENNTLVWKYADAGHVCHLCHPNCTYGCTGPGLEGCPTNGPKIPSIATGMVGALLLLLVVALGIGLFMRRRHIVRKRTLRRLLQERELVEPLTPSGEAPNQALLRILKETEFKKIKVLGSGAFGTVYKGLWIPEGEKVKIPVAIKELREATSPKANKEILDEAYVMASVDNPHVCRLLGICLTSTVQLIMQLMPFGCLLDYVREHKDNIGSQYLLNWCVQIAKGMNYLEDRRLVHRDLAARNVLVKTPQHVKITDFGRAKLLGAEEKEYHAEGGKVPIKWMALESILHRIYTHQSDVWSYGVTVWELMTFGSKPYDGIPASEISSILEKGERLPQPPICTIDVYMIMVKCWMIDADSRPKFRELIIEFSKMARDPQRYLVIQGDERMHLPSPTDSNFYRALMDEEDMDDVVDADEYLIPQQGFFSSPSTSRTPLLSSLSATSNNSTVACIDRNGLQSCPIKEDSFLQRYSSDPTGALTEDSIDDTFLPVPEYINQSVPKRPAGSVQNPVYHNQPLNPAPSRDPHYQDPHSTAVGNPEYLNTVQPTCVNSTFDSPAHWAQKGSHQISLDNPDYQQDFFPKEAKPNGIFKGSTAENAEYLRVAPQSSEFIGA

Row | SMILES | IC50 [1] [nM] | IC50 [2] [nM] | IC50 [3, 4] [nM] | IC50 [3, 5] [nM]
1 | CN1CCC(c2ccc(-c3ccc4c(c3)C(=O)N(C(c3ccn[nH]3)c3cc(F)ccc3O)C4)cc2)CC1 (stereo not drawn) [Compound 045, 2-[(5-fluoro-2-hydroxy-phenyl)-(1H-pyrazol-3-yl)methyl]-6-[4-(1-methyl-4-piperidyl)phenyl]-isoindolin-1-one] | 18 | 32 | 3740 | 1170
2 | CN1CCC(c2ccc(-c3ccc4c(c3)C(=O)N(C(c3nc5cc(F)ccc5[nH]3)c3cc(F)ccc3O)C4)cc2)CC1 (stereo not drawn) [Compound 046, 2-[(5-fluoro-1H-benzimidazol-2-yl)-(5-fluoro-2-hydroxy-phenyl)-methyl]-6-[4-(1-methyl-4-piperidyl)phenyl]isoindolin-1-one; formic acid] | 0.7 | 4 | 860 | 20
3 | CN1CCC(c2ccc(-c3ccc4c(c3)C(=O)N(C(c3nc5c(Cl)cccc5[nH]3)c3cc(F)ccc3O)C4)cc2)CC1 (stereo not drawn) [Compound 047, 2-[(4-chloro-1H-benzimidazol-2-yl)-(5-fluoro-2-hydroxy-phenyl)-methyl]-6-[4-(1-methyl-4-piperidyl)phenyl]isoindolin-1-one; formic acid] | 2 | 14 | 1840 | 80
4 | COc1ccc2[nH]c(C(c3cc(F)ccc3O)N3Cc4ccc(-c5ccc(C6CCN(C)CC6)cc5)cc4C3=O)nc2c1 (stereo not drawn) [Compound 048, 2-[(5-fluoro-2-hydroxy-phenyl)-(5-methoxy-1H-benzimidazol-2-yl)methyl]-6-[4-(1-methyl-4-piperidyl)phenyl]isoindolin-1-one; formic acid] | 4 | 35 | 4760 | 760
5 | Cc1ccc2[nH]c(C(c3cc(F)ccc3O)N3Cc4ccc(-c5ccc(C6CCN(C)CC6)cc5)cc4C3=O)nc2c1 (stereo not drawn) [Compound 050, 2-[(5-fluoro-2-hydroxy-phenyl)-(5-methyl-1H-benzimidazol-2-yl)methyl]-6-[4-(1-methyl-4-piperidyl)phenyl]isoindolin-1-one; formic acid] | 2 | 21 | 3850 | 850
6 | Cc1cccc2[nH]c(C(c3cc(F)ccc3O)N3Cc4ccc(-c5ccc(C6CCN(C)CC6)cc5)cc4C3=O)nc12 (stereo not drawn) [Compound 052, 2-[(5-fluoro-2-hydroxy-phenyl)-(4-methyl-1H-benzimidazol-2-yl)methyl]-6-[4-(1-methyl-4-piperidyl)phenyl]isoindolin-1-one; formic acid] | 2 | 5 | 4180 | 370
7 | O=C1c2cc(-c3ccc(-c4cn[nH]c4)cc3)ccc2CN1C(c1nc2ccccc2[nH]1)c1cc(F)ccc1O (stereo not drawn) [Compound 057, 2-[1H-benzimidazol-2-yl-(5-fluoro-2-hydroxy-phenyl)-methyl]-6-[4-(1H-pyrazol-4-yl)-phenyl]isoindolin-1-one] | 17 | 37 | 550 | 10
8 | CN1CCC(n2cc(-c3ccc4c(c3)C(=O)N(C(c3nc5ccccc5[nH]3)c3cc(F)ccc3O)C4)cn2)CC1 (stereo not drawn) [Compound 060, 2-[1H-benzimidazol-2-yl-(5-fluoro-2-hydroxy-phenyl)-methyl]-6-[1-(1-methyl-4-piperidyl)pyrazol-4-yl]isoindolin-1-one; hydrochloride] | 18 | 27 | 5500 | 110

Further molecules by falling IC50 [1], results first:

Row | IC50 [1] [nM] | IC50 [2] [nM] | IC50 [3, 4] [nM] | IC50 [3, 5] [nM] | SMILES
9 | 13 | > 100 | 790 | 10 | O=C1c2cc(-c3ccc(N4CCOCC4)cc3)ccc2CN1C(c1nc2ccccc2[nH]1)c1cc(F)ccc1O (stereo not drawn) [Compound 059, 2-(1H-benzimidazol-2-yl-(5-fluoro-2-hydroxy-phenyl)-methyl]-6-(4-morpholinopheny)-isoindolin-1-one; hydrochloride]
10 | 12 | 67 | 1420 | 20 | Cn1cc(-c2ccc(-c3ccc4c(c3)C(=O)N(C(c3nc5ccccc5[nH]3)c3cc(F)ccc3O)C4)cc2)cn1 (stereo not drawn) [Compound 058, 2-[1H-benzimidazol-2-yl-(5-fluoro-2-hydroxy-phenyl)-methyl]-6-[4-(1-methylpyrazol-4-yl)phenyl]isoindolin-1-one; dihydrochloride]
11 | 11 | 69 | 790 | 20 | Nc1ccc(-c2ccc(-c3ccc4c(c3)C(=O)N(C(c3nc5ccccc5[nH]3)c3cc(F)ccc3O)C4)cc2)cn1 (stereo not drawn) [Compound 061, 6-[4-(6-amino-3-pyridyl)phenyl]-2-[1H-benzimidazol-2-yl-(5-fluoro-2-hydroxy-phenyl)-methyl]isoindolin-1-one; hydrochloride]
12 | 8 | 12 | 1280 | 10 | CN1CC(Oc2ccc(-c3ccc4c(c3)C(=O)N(C(c3nc5ccccc5[nH]3)c3cc(F)ccc3O)C4)cc2)C1 (stereo not drawn) [Compound 056, 2-[1H-benzimidazol-2-yl-(5-fluoro-2-hydroxy-phenyl)methyl]-6-[4-(1-methylazetidin-3-yl)oxyphenyl]isoindolin-1-one;dihydrochloride]
13 | 2 | 6 | 2540 | 20 | CN1CC(c2ccc(-c3ccc4c(c3)C(=O)N(C(c3nc5ccccc5[nH]3)c3cc(F)ccc3O)C4)cc2)C1 (stereo not drawn) [Compound 049, 2-[1H-benzimidazol-2-yl-(5-fluoro-2-hydroxy-phenyl)methyl]-6-[4-(1-methylazetidin-3-yl)phenyl]isoindolin-1-one]
14 | 1 | 10 | 3920 | 1050 | COc1cccc2[nH]c(C(c3cc(F)ccc3O)N3Cc4ccc(-c5ccc(C6CCN(C)CC6)cc5)cc4C3=O)nc12 (stereo not drawn) [Compound 051]
15 | 1 | 6 | 560 | 5 | CN1CCC(c2ccc(-c3ccc4c(=O)n(C(c5nc6ccccc6[nH]5)c5cc(F)ccc5O)cc(F)c4c3)cc2)CC1 (stereo not drawn) [Compound 053, 2-[1H-benzimidazol-2-yl-(5-fluoro-2-hydroxy-phenyl)-methyl]-4-fluoro-6-[4-(1-methyl-4-piperidyl)phenyl]isoquinolin-1-one; hydrochloride]
16 | 1 | 2 | 100 | 10 | Cc1c(-c2ccc(C3CCN(C)CC3)cc2)ccc2ncn(C(c3nc4ccccc4[nH]3)c3cc(F)ccc3O)c(=O)c12 (stereo not drawn) [Compound 055, 3-[1H-benzimidazol-2-yl-(5-fluoro-2-hydroxy-phenyl)-methyl]-5-methyl-6-[4-(1-methyl-4-piperidyl)phenyl]-quinazolin-4-one; dihydrochloride]
17 | 0.8 | 6 | 210 |  | CN1CCC(c2ccc(-c3ccc4c(c3F)C(=O)N(C(c3nc5c(F)cccc5[nH]3)c3cc(F)ccc3O)C4)cc2F)CC1 (stereo not drawn) [Compound 081, 7-fluoro-2-[(4-fluoro-1H-benzimidazol-2-yl)-(5-fluoro-2-hydroxy-phenyl)methyl]-6-[3-fluoro-4-(1-methyl-4-piperidyl)phenyl]isoindolin-1-one; dihydrochloride]
18 | 0.7 | 3 | 650 | 20 | O=C1c2cc(-c3ccc(C4CCNCC4)cc3)ccc2CN1C(c1nc2ccccc2[nH]1)c1cc(F)ccc1O (stereo not drawn) [Compound 062, 2-[1H-benzimidazol-2-yl-(5-fluoro-2-hydroxy-phenyl)-methyl]-6-[4-(4-piperidyl)-phenyl]isoindolin-1-one; hydrochloride]
19 | 0.4 | 2 | 1060 | 20 | CN1CCC(c2ccc(-c3ccc4c(F)cn(C(c5nc6ccccc6[nH]5)c5cc(F)ccc5O)c(=O)c4c3)cc2)CC1 (stereo not drawn) [Compound 054, 2-[1H-benzimidazol-2-yl-(5-fluoro-2-hydroxy-phenyl)-methyl]-4-fluoro-7-[4-(1-methy-4-piperidyl)phenyl]isoquinolin-1-one]
